Experimental data from patent publication US20060251576A1, “Methods for measuring cholesterol metabolism and transport” (The Regents of the University of California, priority 2005, published 2006).

Tested on: reverse cholesterol transport (RCT)
Assay: Global RCT parameter in rats: Ra cholesterol combined with recovery of administered labeled cholesterol in fecal neutral sterols or bile acids
Type: in vivo
Conditions: for "global parameter" of RCT into neutral sterols (product of Ra cholesterol and excretion of plasma cholesterol): rats fed the agent for 7 days
Description: A refinement of the approach outlined in Example 1, involves calculating the Ra of plasma cholesterol and combining that measurement with the fractional excretion of administered cholesterol as described in Example 4. The recovery of plasma cholesterol in stool is defined as the proportion of administered labeled cholesterol that was excreted in fecal neutral sterols. It is expressed as % label recovered from day 1-4 following infusion. It is calculated from: % ^13C enrichment in fecal neutral sterols, the mg/day excretion of neutral sterols and divided by total mg 1 ^13C cholesterol administered. [formula] The same calculation is made for the recovery of plasma cholesterol into bile acids excreted in stool. Rats were treated with common and investigational cholesterol lowering agents, cholesterolamine, ezetimibe, LXR agonist (TO-901317). The Ra of cholesterol is calculated as described, the recovery of administered cholesterol in fecal sterol or bile acids are calculated as described.

Row | Structure (SMILES) | excretion of plasma cholesterol into neutral sterols and the global parameter of RCT (rats) | "global parameter" of RCT into neutral sterols (product of Ra cholesterol and excretion of plasma cholesterol) | plasma flux to neutral sterols (effect on RCT) (rats, FIG. 12)
1 | O=S(=O)(c1ccccc1)N(CC(F)(F)F)c1ccc(C(O)(C(F)(F)F)C(F)(F)F)cc1 [TO-901317] | observed increase in RCT | significant increase observed | –
2 | O=C1[C@H](CC[C@H](O)c2ccc(F)cc2)[C@@H](c2ccc(O)cc2)N1c1ccc(F)cc1 [ezetimibe] | – | significant increase observed | increase in plasma flux to neutral sterols
